Test results from paper PMC8597046, “Use of Mixture Dosing and Nonlinear Mixed Effect Modeling of Eight Environmental Contaminants in Rabbits to Improve Extrapolation Value of Toxicokinetic Data” (Environmental Health Perspectives, 2021).

Key:
[1] = TK assay, oral mixture dosing: serum concentrations and noncompartmental analysis (sparse data)
Experimental: The experiment was carried out on thirty 10-wk old female New Zealand white rabbits (INRA 1777 line) weighing 2.37±0.14kg . […] Blood samples were taken at the designated time points post IV and oral administration: 15 min, 30 min, 1 h, 2 h, 4 h, 8 h, 12 h, 24 h, 3 d, 7 d, and 28 d from groups of 3 or 6 rabbits at each sampling time. Each rabbit was sampled 3 times and 3 rabbits were sampled at each sampling time, except at 30 min post administration, when 6 samples were collected to provide a sufficient blood volume for assaying the compounds. The doses and assay time points were selected to allow the calculation of TK parameters (Table 1) based on preliminary TK data. Residual concentrations of the compounds, and their possible evolution over time, were determined by sampling six entirely untreated rabbits during the TK study on the day of drug administrations, then 14 d and 28 d later.
The volume administered was adjusted to the animal’s body weight (BW) recorded the day before.
Intravenous administrations were performed via an indwelling catheter (22G Terumo, 0.9×25mm ) just after its insertion into an ear vein. […] For oral administrations, the mixture of all compounds ( 4mL/kg ) was deposited directly in the mouth of rabbits using a catheter (22G BD Insyte 22G, 0.9×25mm ). Prior to the study, the rabbits had been trained to gradually swallow water and then corn oil.
Blood samples were collected from the auricular artery using a 20 G needle ( 0.9×25mm ) and a dry tube. The first two blood samples were 8–10mL in volume, whereas a large volume (about 20mL ) was obtained antemortem immediately after electrical stunning (95LX rabbit stunner; Burdis), followed by exsanguination.
Serum concentration-time profiles of the different compounds were first analyzed using a noncompartmental approach (NCA) involving a sparse data option. Sparse data methodology consists of calculating TK parameters based on the mean profile of all the subjects in the dataset and is appropriate when a rich data series cannot be obtained, as in the present experiment ([FDA 1999]). The area under the concentration time curve ( AUC0−tlast ) and the area under the first moment curve ( AUMC0−tlast ) from dosing time ( t=0 ) to the time of the last measurable concentration were calculated using the linear trapezoidal rule after IV and oral dosing. The area under the serum concentration time curve from dosing time to infinity ( AUC0−inf ) was obtained by adding to AUC0−tlast the area extrapolated from the time of the last measurable concentration to infinity by dividing the last quantifiable serum concentration by the slope of the terminal phase ( λZ ), as estimated by linear regression using the best fit option of Phoenix®.
The clearance (CL) and apparent clearance (CL_F) were respectively estimated after IV and oral administrations by dividing the administered dose by the AUC0−inf calculated for each analyte.
The terminal half-life (HL) was estimated with Equation 1: (1) HL=0.69315/λZ where λz is the slope of the terminal phase.
The oral bioavailability (F) was estimated using Equation 2: (2) F=AUCvo0−tlast×Doseiv/AUCiv0−tlast×Dosevo, where AUCiv0−tlast and AUCvo0-tlast are the values of AUC0−tlast obtained after IV and oral dosing, respectively, and Doseiv and Dosevo are the IV and oral doses.

[2] = Nonlinear mixed effect (NLME) compartmental modeling of merged IV and oral serum concentrations; settings: for Volume(s) of the peripheral compartment: for PFOA first peripheral compartment
Excerpt: A nonlinear mixed effect (NLME) modeling approach was used to analyze simultaneously all data obtained from the different rabbits after both IV and oral administrations and to provide robust estimates of the typical TK parameters.
The primary parameters of the model, namely the volume of distribution of the central compartment (V1), the first-order rate constants ( K10 , K12 , K21 , and Kabs plus K13 , K31 for PFOA) and the bioavailability (F) and their associated precisions [standard error (SE)] were estimated by minimizing an objective function value (OFV) expressed as minus twice the log of the likelihood estimation ( −2LL ). […] Marginal likelihood was approximated by using the Laplacian engine by default and, when this engine was unable to determine the SE of the estimate, the Quasi-Random Parametric Expectation Maximization (QRPEM) was selected.
Between subject variability (BSV) of the parameters was measured using the exponential model θparameter_i=θtv_parameter×exp (ηi), where θparameter_i is the parameter estimated for the ith individual, θtv_parameter is the typical population value of the parameter, and ηi is the deviation associated with the ith individual from the corresponding value of the parameter at the population level.
The distribution of ηi was assumed to be normal with a mean of 0 and a variance ω² . BSV was reported as a coefficient of variation (CV) in the original scale CV(%)=100× exp (ω^2)−1 .
The residual variance was modeled using a combined additive and proportional error model Cobsij=Cpredij(1 + ε1ij) + ε2ij, where Cobsij and Cpredij are respectively the jth observed and predicted concentrations for the ith individual, and ε1ij and ε2ij are the multiplicative and additive residual errors.
Secondary parameters were calculated from the population primary parameters.
The clearance values (CL) were estimated using Equation 5: (5) CL=K10×V1, where V1 is the volume of the central compartment and K10 is the elimination rate constant from the central compartment.
The volume of the peripheral compartment (V2) was estimated with Equation 6: (6) V2=V1×(K12/K21), where K12 and K21 are the distribution rate constants between the central and the peripheral compartments.
The clearance of distribution (Q) was estimated using Equation 7: (7) Q=K12×V1, with […] and K12 as defined above.
The volume of distribution associated with the terminal phase was estimated with Equation 10: (10) VZ=CL/λZ, with λZ as defined above.
The AUC was computed as a secondary parameter using Equation 11: (11) AUC=Dose/CL.
The terminal half-life was estimated with Equation 1, as previously described.

[3] = oral mixture dosing, NCA, n=12, MEHP after oral DEHP
[4] = population primary parameter, typical value, mean
[5] = population primary parameter, typical value, mean, MEHP after oral DEHP
[6] = population secondary parameter, mean
[7] = female, New Zealand white (INRA 1777 line), rabbit, in vivo, po
[8] = female, New Zealand white (INRA 1777 line), rabbit, in vivo, po, Serum concentration
[9] = female, New Zealand white, rabbit, in vivo, po, Serum concentration
[10] = female, New Zealand white (INRA 1777 line), rabbit, in vivo
[11] = female, New Zealand white, rabbit, in vivo
[12] = female, New Zealand white, rabbit, in vivo, po

SMILES: O=S(=O)(O)C(F)(F)C(F)(F)C(F)(F)C(F)(F)C(F)(F)C(F)(F)C(F)(F)C(F)(F)F [nPFOS, linear isomer of perfluorooctane sulfonate]
- Oral bioavailability estimated by NCA ([1]; NCA): greater than 100%
- CL_F (apparent clearance) ([1]; oral mixture dosing, NCA, n=12): 0.00347 mL/min/kg
- MRT [1, 3]: 69.92 days
- Tmax [1, 3]: 1 days
- VZ_F (apparent volume of distribution associated to the terminal phase) [1, 3]: 0.359 L/kg
- Serum concentration ([1]; oral, rabbit 13, 4.30 h, MEHP after oral DEHP): 710 nM
- Serum concentration ([1]; oral, rabbit 14, 0.37 h, MEHP after oral DEHP): 230 nM
- Serum concentration ([1]; oral, rabbit 14, 4.17 h, MEHP after oral DEHP): 890 nM
- Serum concentration ([1]; oral, rabbit 15, 4.05 h, MEHP after oral DEHP): 1040 nM
- Serum concentration ([1]; oral, rabbit 15, 23.98 h, MEHP after oral DEHP): 1280 nM
- Serum concentration ([1]; oral, rabbit 16, 0.55 h, MEHP after oral DEHP): 140 nM
- Serum concentration ([1]; oral, rabbit 16, 72.00 h, MEHP after oral DEHP): 1100 nM
- Serum concentration ([1]; oral, rabbit 17, 0.53 h, MEHP after oral DEHP): 120 nM
- Serum concentration ([1]; oral, rabbit 17, 72.00 h, MEHP after oral DEHP): 1540 nM
- Serum concentration ([1]; oral, rabbit 18, 0.55 h, MEHP after oral DEHP): 290 nM
- Serum concentration ([1]; oral, rabbit 18, 71.96 h, MEHP after oral DEHP): 1250 nM
- Serum concentration ([1]; oral, rabbit 19, 12.00 h, MEHP after oral DEHP): 660 nM
- Serum concentration ([1]; oral, rabbit 19, 168.02 h): 1010 nM
- Serum concentration ([1]; oral, rabbit 20, 12.00 h, MEHP after oral DEHP): 690 nM
- Serum concentration ([1]; oral, rabbit 20, 168.00 h): 1070 nM
- Serum concentration ([1]; oral, rabbit 21, 12.00 h, MEHP after oral DEHP): 810 nM
- Serum concentration ([1]; oral, rabbit 21, 168.00 h): 1060 nM
- Serum concentration ([1]; oral, rabbit 22, 672.02 h): 450 nM
- Serum concentration ([1]; oral, rabbit 23, 671.96 h): 820 nM
- Serum concentration ([1]; oral, rabbit 24, 672.02 h): 1020 nM
- AUC0−inf ([1]; serum, oral mixture dosing, NCA, n=12, MEHP after oral DEHP): 1,919 μmol×h/L
- Cmax ([1]; serum, oral mixture dosing, NCA, n=12, doses in Table 3 r3, MEHP measured after oral DEHP, BPSG after BPS): 1300 nM
- MRT ([2]; NLME model): 47.6 days
- Oral bioavailability (F) ([2]; NLME model): total
- Terminal HL ([2]; NLME model): 33 days
- AUCIV ([2]; dosing time to infinity after intravenous dosing, population secondary parameter): 355 µM·h
- AUCVO ([2]; dosing time to infinity after oral dosing, population secondary parameter, MEHP after oral DEHP): 1,246 μmol×h/L
- AUCVO/dose ([2]; oral dosing): 3,115 μmol×h/L per μmol/kg BW
- bioavailability ([2]; oral, population secondary parameter, mean, as fraction): 1
- tvK10 (elimination rate constant from the central compartment) [2, 4]: 0.00111 h⁻¹
- tvK12 (distribution rate constant) [2, 4]: 0.153 h⁻¹
- tvK21 (distribution rate constant) [2, 4]: 0.581 h⁻¹
- tvVc (volume of the central compartment) [2, 4]: 0.290 L/kg
- tvKabs (rate constant of absorption) [2, 5]: 0.252 h⁻¹
- Clearance [2, 6]: 0.00533 mL/min/kg
- VSS [2, 6]: 0.37 L/kg
- Volume(s) of the peripheral compartment [2, 6]: 0.077 L/kg
- half-life ([2]; terminal, population secondary parameter, mean): 33 days

SMILES: ClC(Cl)=C(c1ccc(Cl)cc1)c1ccc(Cl)cc1 [pp′DDE, 1,1-Dichloro-2,2-bis(p-chlorophenyl)ethylene]
- AUC(0-inf) [1, 7]: 78.6 µM·h
- CL/F [1, 7]: 3 mL/min/kg
- Cmax [1, 7]: 580 nM
- MRT [1, 7]: 12.8 days
- Tmax [1, 7]: 1 days
- Vd/F [1, 7]: 68.8 L/kg
- bioavailability [1, 7]: 62%
- half-life [1, 7]: 10.8 days
- Serum concentration ([1]; female, New Zealand white (INRA 1777 line), rabbit, in vivo, po, 24 h): 430 nM
- Serum concentration ([1]; female, New Zealand white (INRA 1777 line), rabbit, in vivo, po, 672.02 h): 40 nM
- concentration at 0.57 h [1, 8]: 16 nM
- concentration at 23.98 h [1, 8]: 250 nM
- concentration at 24 h [1, 8]: 720 nM
- concentration at 168 h [1, 8]: 110 nM
- concentration at 671.96 h [1, 8]: 24 nM
- concentration at 672.02 h [1, 8]: 31 nM
- Serum concentration ([1]; female, New Zealand white, rabbit, in vivo, po, 72 h): 200 nM
- concentration at 71.96 h [1, 9]: 250 nM
- concentration at 72 h [1, 9]: 140 nM
- concentration at 168 h [1, 9]: 110 nM
- concentration at 168.02 h [1, 9]: 91 nM
- Vd [2, 10]: 35 L/kg
- k el [2, 10]: 1.33e-05 s⁻¹
- bioavailability ([2]; female, New Zealand white (INRA 1777 line), rabbit, in vivo, po, Oral bioavailability (F)): 72%
- MRT [2, 11]: 10.9 days
- half-life [2, 11]: 11.3 days
- clearance ([2]; female, New Zealand white, rabbit, in vivo, Clearance): 2.17 mL/min/kg
- AUC ([2]; female, New Zealand white, rabbit, in vivo, iv): 17 µM·h
- AUC [2, 12]: 77 µM·h
- AUCVO/dose [2, 12]: 5.35 μmol×h/L per μmol/kg BW
- bioavailability ([2]; female, New Zealand white, rabbit, in vivo, po, Bioavailability): 72%
- tvK12 (distribution rate constant) [2, 4]: 0.08353 h⁻¹
- tvK21 (distribution rate constant) [2, 4]: 0.00729 h⁻¹
- tvVc (volume of the central compartment) [2, 4]: 2.821 L/kg
- tvKabs (rate constant of absorption) [2, 5]: 0.01994 h⁻¹
- Volume(s) of the peripheral compartment [2, 6]: 32 L/kg
